System in the first data set: not given
Experiment: not given
Conditions: not given
One may read the melting point as the temperature of the solid-liquid transition. For the compound `CC(NC(=O)/C=C/c1ccccc1F)c1ccc2c(c1)NCCC2` (racemic), the melting point fell in the range of 171 to 173 °C.
For the compound `CC(NC(=O)/C=C/c1cccc(F)c1)c1ccc2c(c1)NCCC2` (racemic) [Example 232, (±)-3-(3-Fluoro-phenyl)-N-[1-(1,2,3,4-tetrahydro-quinolin-7-yl)ethyl]-acrylamide], the melting point is 130 to 132 °C (dec.).
For `CC(NC(=O)/C=C/c1ccccc1)c1ccc2c(c1)NCCC2` (racemic) [Example 233, (±)-3-phenyl-N-[1-(1,2,3,4-tetrahydro-quinolin-7-yl)ethyl]-acrylamide], the melting point lay within 144 to 146 °C.
`CC(NC(=O)/C=C/c1cc(F)ccc1F)c1ccc2c(c1)NCCC2` (racemic) [Example 234, (±)-3-(2,5-difluoro-phenyl)-N-[1-(1,2,3,4-tetrahydro-quinolin-7-yl)ethyl]-acrylamide] displayed a melting point of 139 to 141 °C.
Still for that read-out and setting: the result for `CC(NC(=O)/C=C/c1ccc(F)cc1)c1ccc2c(c1)NCCC2` (racemic) [Example 235, (±)-3-(4-fluoro-phenyl)-N-[1-(1,2,3,4-tetrahydro-quinolin-7-yl)ethyl]-acrylamide] reads 125 to 127 °C (dec.); that for `CC(NC(=O)/C=C/c1ccccc1F)c1ccc2c(c1)N(C)CCC2` (racemic) [Example 236, (±)-3-(2-fluoro-phenyl)-N-[1-(1-methyl-1,2,3,4-tetrahydro-quinolin-7-yl)ethyl]acrylamide], 60 to 63 °C.
On to `CC(NC(=O)/C=C/c1cc(F)ccc1F)c1ccc2c(c1)N(C)CCC2` (racemic) [Example 237, (±)-3-(2,5-difluoro-phenyl)-N-[1-(1-methyl-1,2,3,4-tetrahydro-quinolin-7-yl)ethyl]acrylamide], for which the melting point fell in the range of 52 to 55 °C.
The same measure, in the same setting: the result for `CC(NC(=O)/C=C/c1ccccc1)c1ccc2c(c1)N(C)CCC2` (racemic) [Example 238, (±)-N-[1-(1-methyl-1,2,3,4-tetrahydro-quinolin-7-yl)-ethyl]-3-phenyl-acrylamide] reads 166 °C (dec.); that for `CC(NC(=O)/C=C/c1cccc(F)c1)c1ccc2c(c1)N(C)CCC2` (racemic) [Example 239, (±)-3-(3-fluoro-phenyl)-N-[1-(1-methyl-1,2,3,4-tetrahydro-quinolin-7-yl)ethyl]acrylamide], 60 to 63 °C; that for `CC(NC(=O)/C=C/c1ccc(F)cc1)c1ccc2c(c1)N(C)CCC2` (racemic) [Example 240, (±)-3-(4-fluoro-phenyl)-N-[1-(1-methyl-1,2,3,4-tetrahydro-quinolin-7-yl)ethyl]acrylamide], 183 to 185 °C.
`CCN1CCCc2ccc(C(C)NC(=O)/C=C/c3ccccc3)cc21` (racemic) [Example 241, (±)-N-[1-(1-ethyl-1,2,3,4-tetrahydro-quinolin-7-yl)-ethyl]-3-phenyl-acrylamide] gave a melting point of 50 to 52 °C.
For the compound `CCN1CCCc2ccc(C(C)NC(=O)/C=C/c3cc(F)ccc3F)cc21` (racemic) [Example 242, (±)-3-(2,5-difluoro-phenyl)-N-[1-(1-ethyl-1,2,3,4-tetrahydro-quinolin-7-yl)ethyl]acrylamide], the melting point is 50 to 53 °C.
The compound `CC(=O)N1CCCc2ccc(C(C)NC(=O)/C=C/c3ccccc3)cc21` (racemic) [Example 243, (±)-N-[1-(1-acetyl-1,2,3,4-tetrahydro-quinolin-7-yl)-ethyl]-3-phenyl-acrylamide] displayed a melting point of 65 to 68 °C.
Same read-out and setting: next, `CC(NC(=O)/C=C/c1ccccc1)c1ccc2c(c1)CCCN2` (stereo not shown) [Example 249, 3-phenyl-N-[1-(1,2,3,4-tetrahydro-quinolin-6-yl)ethyl]acrylamide]: 64 to 67 °C.
As to `CC(NC(=O)/C=C/c1ccc(F)c(F)c1)c1ccc2c(c1)CCCN2` (stereo not shown) [Example 250, 3-(3,4-difluoro-phenyl)-N-[1-(1,2,3,4-tetrahydro-quinolin-6-yl)-ethyl]acrylamide], the melting point was 156 °C (dec.).
For `CC(NC(=O)/C=C/c1ccccc1F)c1ccc2c(c1)CCCN2` (stereo not shown) [Example 251, 3-(2-fluoro-phenyl)-N-[1-(1,2,3,4-tetrahydro-quinolin-6-yl)ethyl]acrylamide], the melting point was 149 to 151 °C (dec.).
For the compound `CC(NC(=O)/C=C/c1cc(F)ccc1F)c1ccc2c(c1)CCCN2` (stereo not shown) [Example 252, 3-(2,5-difluoro-phenyl)-N-[1-(1,2,3,4-tetrahydro-quinolin-6-yl)-ethyl]acrylamide], the melting point is 55 to 58 °C.
The same measure, in the same setting: the result for `CC(NC(=O)/C=C/c1c(F)cccc1F)c1ccc2c(c1)CCCN2` (stereo not shown) [Example 253, 3-(2,6-difluoro-phenyl)-N-[1-(1,2,3,4-tetrahydro-quinolin-6-yl)ethyl]acrylamide] reads 77 to 80 °C; that for `CC(NC(=O)/C=C/c1cccc(F)c1)c1ccc2c(c1)CCCN2` (stereo not shown) [Example 254, 3-(3-fluoro-phenyl)-N-[1-(1,2,3,4-tetrahydro-quinolin-6-yl)ethyl]acrylamide], 172 to 174 °C; that for `CC(NC(=O)/C=C/c1ccc(F)cc1)c1ccc2c(c1)CCCN2` (stereo not shown) [Example 255, 3-(4-fluoro-phenyl)-N-[1-(1,2,3,4-tetrahydro-quinolin-6-yl)ethyl]acrylamide], 140 to 143 °C.
Same read-out and setting: next, `CC(NC(=O)/C=C/c1ccccc1)c1ccc2c(c1)CCCN2C` (stereo not shown) [Example 256, N-[1-(1-methyl-1,2,3,4-tetrahydro-quinolin-6-yl)-ethyl]-3-phenyl-acrylamide]: 65 to 68 °C.
The same measure, in the same setting: next, `CC(NC(=O)/C=C/c1cc(F)ccc1F)c1ccc2c(c1)CCCN2C` (stereo not shown) [Example 257, 3-(2,5-difluoro-phenyl)-N-[1-(1-methyl-1,2,3,4-tetrahydro-quinolin-6-yl)ethyl]acrylamide]: 51 to 55 °C.

The target of a further data set is T1, mKCNQ2 channels (Mus musculus, UniProt Q9Z351).
T1 construct: expressed in transfected cells
T1 sequence (Q9Z351 whole entry): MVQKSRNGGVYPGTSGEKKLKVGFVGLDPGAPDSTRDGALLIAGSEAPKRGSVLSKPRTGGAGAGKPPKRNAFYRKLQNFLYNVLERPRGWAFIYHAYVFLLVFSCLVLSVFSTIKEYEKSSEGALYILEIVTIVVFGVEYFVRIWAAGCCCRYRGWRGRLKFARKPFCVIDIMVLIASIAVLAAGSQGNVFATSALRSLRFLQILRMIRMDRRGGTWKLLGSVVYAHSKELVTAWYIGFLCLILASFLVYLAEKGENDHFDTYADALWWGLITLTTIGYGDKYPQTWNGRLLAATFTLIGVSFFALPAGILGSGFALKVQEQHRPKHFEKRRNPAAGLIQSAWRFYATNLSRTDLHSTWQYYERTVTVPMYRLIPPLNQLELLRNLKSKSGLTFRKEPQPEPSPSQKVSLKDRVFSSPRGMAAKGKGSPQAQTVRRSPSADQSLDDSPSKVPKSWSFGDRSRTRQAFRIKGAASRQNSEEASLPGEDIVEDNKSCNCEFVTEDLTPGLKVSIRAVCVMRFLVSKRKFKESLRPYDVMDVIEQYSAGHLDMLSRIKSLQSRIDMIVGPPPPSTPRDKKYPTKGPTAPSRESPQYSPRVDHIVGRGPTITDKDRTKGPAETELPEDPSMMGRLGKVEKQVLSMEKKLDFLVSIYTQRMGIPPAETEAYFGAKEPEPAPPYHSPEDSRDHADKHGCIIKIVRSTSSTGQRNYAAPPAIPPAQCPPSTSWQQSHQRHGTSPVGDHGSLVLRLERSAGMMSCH
Briefly: Whole-cell patch-clamp, HEK 293 stable cell line expressing mKCNQ2 channels. In kind it is cell-based. The conditions noted are these: @ −40 mV; HEK 293 mKCNQ2, Hill fit. How it is done:
Whole-cell patch-clamp recordings were made from an HEK 293 stable cell line expressing mKCNQ2 channels, maintained in culture for 1-2 days. Patch pipettes had initial resistances of 2.5-4 MΩ. Currents were recorded with an EPC-9 amplifier (HEKA, Lambrecht, Germany) controlled with software (Pulse, HEKA) run on a standard lab PC. Series resistance compensation was used during current recording, and set at 80%. The series resistance (R) and cell capacitance (C) were determined electronically by subtracting the capacitive currents at the onset and offset of a 5 mV voltage step. The cancellation of whole-cell capacitance transients was virtually complete in all cells. Analog current signals were low-pass filtered at 2.9 kHz using a four-pole Bessel filter −3 dB) and stored on a local network server computer at a sampling rate of […]. All recordings were performed at room temperature (20-22° C.). The pipette solution contained (mM): KCl, 150; CaCl2, 2.5; EGTA, 5; MgCl2, 1; HEPES, 10; pH to 7.3 with KOH, and Osmolality of 290-300 mOsm. The extracellular solution contained (mM): NaCl, 140; KCl, 2.5; CaCl2, 2.5; MgCl2, 1; glucose, 10; HEPES, 10; pH to 7.3 with NaOH, and Osmolality of 305-310 mOsm
Concentration response data were generated by measuring the difference in the steady-state amplitude of current in the presence of compound at the end of a 600 ms voltage-clamp step from a holding potential of −80 mV. The concentration-response data were fitted with Hill-type equations: […]
where I is the steady-state current at a given concentration of agonist [A]; and Imax, EC50 and nH are parameters estimated from the curve fit. In some cases the concentration-response data were fitted with equations consisting of the sum of two Hill-type components. Current-voltage (I/V) relationships for agonist-evoked currents were obtained by performing 600 ms voltage steps (−110 mV to +40 mV) in the absence and presence of agonist.
As usually defined, the EC50 is the midpoint of the concentration-response curve. A low value points to greater potency. In turn, `CC(NC(=O)/C=C/c1cc(F)ccc1F)c1ccc2c(c1)OCO2` (racemic) [Example 38, (±)-N-(1-Benzo[1,3]-diox-ol-5-yl-ethyl)-3-(2,5-di-fluoro-phenyl)-acrylamide] registered an EC50 of 4.2 µM.
Still for that read-out and setting: the result for `CC(NC(=O)/C=C/c1ccccc1Cl)c1ccc2c(c1)OCO2` (racemic) [Example 46, (±)-N-(1-Benzo[1,3]-diox-ol-5-yl-ethyl)-3-(2-chlor-o-phenyl)-acrylamide] reads 0.0006 µM.
Take `CCN1CCCc2ccc(C(C)NC(=O)/C=C/c3cc(F)ccc3F)cc21` (racemic) [Example 242, (±)-3-(2,5-difluoro-phenyl)-N-[1-(1-ethyl-1,2,3,4-tetrahydro-quinolin-7-yl)ethyl]acrylamide]: the EC50 was found to be 1.4 µM. Against the preceding compound, the EC50 is about 2300-fold higher.
In turn, `CCN1CCOc2ccc(C(C)NC(=O)/C=C/c3ccccc3F)cc21` (single isomer, unassigned) [Example 214, 3-(2-fluoro-phenyl)-N-[1-(4-ethyl-3,4-dihydro-2H-benzo[1,4]oxazin-6-yl)ethyl]-acrylamide] had an EC50 of 0.0009 µM.
`CC(NC(=O)/C=C/c1ccccc1F)c1ccc2c(c1)N(CC1CC1)CCO2` (single isomer, unassigned) [Example 215, 3-(2-fluoro-phenyl)-N-[1-(4-cyclopropylmethyl-3,4-dihydro-2H-benzo[1,4]oxazin-6-yl)ethyl]-acrylamide] returned an EC50 of 5.4 µM.
Consider `C[C@H](NC(=O)/C=C/c1ccc(Cl)cc1F)c1cccc(N2CCOCC2)c1` [Example 97, (S)-3-(4-Chloro-2-fluoro-phen-yl)-N-[1-(3-morpho-lin-4-yl-phenyl)-eth-yl]-acrylamide], for which a half-maximal effect (EC50) was put at 2.9 µM.

Still in this data set, the particulars now being: HEK293; HEK 293 mKCNQ2, Hill fit; read-out: Imax (%).
Consider `CC(NC(=O)/C=C/c1cc(F)ccc1F)c1ccc2c(c1)OCO2` (racemic) [Example 38, (±)-N-(1-Benzo[1,3]-diox-ol-5-yl-ethyl)-3-(2,5-di-fluoro-phenyl)-acrylamide], for which the Emax came out at 550%.
In the case of `CC(NC(=O)/C=C/c1ccccc1Cl)c1ccc2c(c1)OCO2` (racemic) [Example 46, (±)-N-(1-Benzo[1,3]-diox-ol-5-yl-ethyl)-3-(2-chlor-o-phenyl)-acrylamide], the Emax was 260%.
Turning to `CCN1CCOc2ccc(C(C)NC(=O)/C=C/c3ccccc3F)cc21` (single isomer, unassigned) [Example 214, 3-(2-fluoro-phenyl)-N-[1-(4-ethyl-3,4-dihydro-2H-benzo[1,4]oxazin-6-yl)ethyl]-acrylamide], the Emax was 260%.

Values taken from patent US6831080B2, “Cinnamide derivatives as KCNQ potassium channel modulators” (Bristol-Myers Squibb Company, priority 2001, dated 2004).
